Results: patent US5298621A, “Oligopeptide derivatives of ipoxantine endowed with immunomodulating activity and pharmaceutical compositions containing same” (Sigma-Tau Industrie Farmaceutiche Riunite S.p.A., priority 1990, dated 1994)

Assays:
[1] = tested on: responders (thymus of C57B1/6) induced by stimulators (spleen of DBA/2); experiment: "In vitro-ex vivo" mixed lymphocyte reaction (MLR); set-up: species or system mice; details: 25 mg/kg/day i.p. from day -5 to day -1
Method: Test 8 Assessment of the "in vitro-ex vivo" effect of ST 733, ST 754 and ST 789 on the mixed lymphocyte reaction (MLR).
Male DBA/2 mice (Charles River, Italy) aged 8 weeks were used as "stimulators" (4 animals per group); male inbred C57 B1/6 mice (Charles River, Italy) were used as "responders" (4 animals per group).
The compounds were administered i.p. from day -5 to day -1 (thymus excision of "responders" at day 0) 25 mg/kg/day.
The experimental procedure that was used is described by Hudson, L. and Hay, F. C., Practical Immunology, Blackwell Scientific Publication 290 (1980).

thymocytes = experiment: "In vitro-ex vivo" mytogen (PHA, Con A)-induced murine thymocite proliferation; set-up: species or system mice; details: 25 mg/kg/day i.p. from day -4 to day -1
Method: Test 7 Assessment of the "in vitro-ex vivo" effect of ST 754, ST 785 and ST 789 on the mytogen (PHA, Con A)-induced murine thymocite proliferation.
The compounds were administered at the dose of 25 mg/kg/day from day -4 to day -1 (thymus excision at day 0). This test was conducted following the procedure described for test 5.
The Stimulation Index (S.I.) is as defined in test 5.

N=C(N)NCCC[C@H](NC(=O)OCCCCCn1cnc2c(=O)[nH]cnc21)C(=O)O [ST 789, N-5-(ipoxantin-9-yl) pentyloxycarbonylarginine, reference compound]
Body weight [1]: 22.1 ± 0.5 g
Spleen weight [1]: 82.7 ± 3.2 mg
Thymus weight [1]: 63.0 ± 7.9 mg
^3 H-TdR Incorporation (cpm ± S.E.) Non stimulated responders [1]: 132.0 cpm
^3 H-TdR Incorporation (cpm ± S.E.) Stimulated responders [1]: 9256 cpm
Thymocytes No. (× 10^7) ([1]; pooled samples): 14.7 × 10^7
Body weight (thymocytes): 22.8 ± 0.5 g
Thymus weight (thymocytes): 74.2 ± 4.4 mg
Con A AUC (× 10^-3) (thymocytes; Con A-induced proliferation): 68 × 10^-3
Con A I.S. (stimulation index) (thymocytes; Con A-induced proliferation): 1.10
PHA AUC (area under curve) (thymocytes; PHA-induced proliferation): 3924
PHA I.S. (stimulation index) (thymocytes; PHA-induced proliferation): 1.40
Thymocytes No. (× 10^7) (thymocytes; pooled samples): 12.1 × 10^7
